Results published in US9237750B2, “Ornidazole and related compounds for use as herbicides” (RAMOT AT TEL-AVIV UNIVERSITY LTD., priority 2012, dated 2016).

Columns and labels:
[1] = Stability in BG-11 medium lacking cells (LC-MS); format: physicochemical; conditions: 0.1 mM, dark or light, four days
Protocol: Ornidazole (molecular mass 220 and 222 due to two isotopes of chlorine) or degradation products were sought by LC-MS. The chromatograms of samples from the first and fourth days are shown in FIG. 7B and FIG. 7C, respectively. The retention time and molecular mass of the isolated molecules are designated.
The concentrations of Ornidazole and its degradation product in the medium were determined during the growth of the cyanobacterium Anabaena PCC7120 and in media lacking cyanobacteria in the dark or under illumination. Ornidazole at 0.1 mM concentration was added to three growth tubes containing BG-11 medium: one growth tube was kept in the dark, the second under light conditions of 60 μmol photons m^−2 sec^−1 and the third tube, to which Anabaena cells were added, was also kept under similar light conditions. Samples from each tube were taken every day, separated on a C18 reverse phase HPLC column, and Ornidazole (molecular mass 220 and 222 due to two isotopes of chlorine) or degradation products were sought by LC-MS. A degradation product of molecular mass 184, identified as C7H9N3O3, was found in all three tubes.

[2] = biological target: triose phosphate isomerase (Homo sapiens, UniProt P60174); conditions: glycolytic triose phosphate isomerase; cited from earlier work
Sequence of triose phosphate isomerase (P60174 whole entry, species assumed): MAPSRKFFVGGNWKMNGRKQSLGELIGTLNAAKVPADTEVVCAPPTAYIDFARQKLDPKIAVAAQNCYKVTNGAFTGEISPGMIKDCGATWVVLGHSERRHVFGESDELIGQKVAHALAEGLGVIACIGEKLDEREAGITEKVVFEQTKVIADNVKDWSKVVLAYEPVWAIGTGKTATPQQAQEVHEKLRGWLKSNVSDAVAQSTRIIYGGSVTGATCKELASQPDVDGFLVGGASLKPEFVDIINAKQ

Anabaena PCC7120 [3] = test: Net O2 exchange (photosynthesis and respiration), O2 electrode; format: cell-based, Anabaena PCC7120 (Cyanobacteria)
Protocol: (§1) The cyanobacterium Anabaena PCC7120 was grown in BG-11 medium as was previously described (Marcus Y, et al., 2005. J Bacteriol 187, 4222-4228). The green eukaryotic alga Dunaliella salina was grown on a medium described by Ben-Amotz and Avron (Ben-Amotz A and Avron M 1983. Plant Physiol 72, 593-597), under 20 μmol photons m^−2 sec^−1 at 30° C. The aquatic plant Lemna was collected from an open pond at the Botanical garden of Tel Aviv University. Seedlings of Avena sterilis were grown in pots in a greenhouse. The marine diatom Phaeodactylum tricornutum was grown as described in Haimovich-Dayan et al. (Haimovich-Dayan M. et al. 2012. New Phytol 195:177-185).
(§2) The rate of net O2 exchange was determined using a Clark-type O2 electrode (Rank Brothers Ltd, UK). Fluorescent measurements (quantum yield, photochemical and non photochemical quenching) were determined using a modulated fluorometer (PAM, Walz, Germany) as described by Schreiber et al. (Schreiber U et al., 1986. fluorometer. Photosynth Res 10, 51-62) and Snir et al. (Snir A, et al., 2006. Photosynth Res 90, 233-242).
(§3) The algae Anabaena PCC7120 (Cyanobacteria), Dunaliella salina (Chlorophyta) and Phaeodactylum tricornutum (Diatoms) were each grown in its suitable medium as described hereinabove towards the mid logarithmic phase. 1 mM Ornidazole was then added to the medium for 5 min, and respiration and photosynthesis were measured for at least 10 min.
The effect of Ornidazole on the rate of photosynthesis of Anabaena was also determined. The algae were grown under various light intensities and saturating inorganic carbon (Ci) concentration, or under various Ci concentrations and saturating irradiance.

[4] = biological target: glyceraldehyde-3-phosphate dehydrogenase (GAPDH) (Homo sapiens, UniProt P04406); conditions: glycolytic GAPDH; cited from earlier work
Sequence of glyceraldehyde-3-phosphate dehydrogenase (GAPDH) (P04406 whole entry, species assumed): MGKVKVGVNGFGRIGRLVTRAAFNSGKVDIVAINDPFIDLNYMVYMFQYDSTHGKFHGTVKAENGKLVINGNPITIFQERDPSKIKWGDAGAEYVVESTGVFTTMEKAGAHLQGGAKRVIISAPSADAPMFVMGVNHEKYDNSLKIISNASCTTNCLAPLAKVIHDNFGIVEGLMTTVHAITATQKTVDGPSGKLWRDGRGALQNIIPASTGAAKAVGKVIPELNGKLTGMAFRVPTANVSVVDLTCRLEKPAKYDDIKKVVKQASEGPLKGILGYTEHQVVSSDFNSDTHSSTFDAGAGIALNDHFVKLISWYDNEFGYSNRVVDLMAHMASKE

Avena sterilis = test: Photosynthetic quantum yield of immersed leaf blades (PAM fluorimeter); format: in vivo; conditions: 1 mM Ornidazole in water, 3.5 hours
Protocol: Leaves of Avena seedlings grown in a pot (still attached to the stem) were immersed in 1 mM Ornidazole for the indicated times. The photosynthetic quantum yield under various light intensities was determined with a PAM fluorimeter. The rate of net O2 exchange was determined using a Clark-type O2 electrode (Rank Brothers Ltd, UK). Fluorescent measurements (quantum yield, photochemical and non photochemical quenching) were determined using a modulated fluorometer (PAM, Walz, Germany) as described by Schreiber et al. (Schreiber U et al., 1986. fluorometer. Photosynth Res 10, 51-62) and Snir et al. (Snir A, et al., 2006. Photosynth Res 90, 233-242). Similar results were obtained by immersion of leaf blades of the weed Avena sterilis in 1 mM Ornidazole in water. After 3.5 hours of incubation the quantum yield of photosynthesis decreased by 50% under limiting light intensity and by 85% under saturating light intensity (FIG. 4).

[5] = tested on: photosynthetic electron transport in Anabaena; test: Photosynthetic electron transport from H2O via reaction centers II and I and Methyl viologen to O2; format: cell-based, Anabaena PCC7120; conditions: water to Methyl viologen (1 mM) to oxygen; O2 electrode
Protocol: The rates were determined for cells grown in a growth medium at 30° C. under 180 μmol photons×m^−2×sec^−1. The rate of electron transport from H2O via reaction centers II and I and Methyl viologen to O2 was determined in the presence of 1 mM methyl viologen using an O2 electrode. The effects of Ornidazole on the dark and light reactions of the photosynthetic apparatus were examined. Ornidazole had no effect on the photosynthetic electron transport in Anabaena measured from water as electron donor through the two reaction centers to Methyl viologen and finally to oxygen as an electron acceptor (FIG. 5).

Dunaliella salina = test: Net O2 exchange (photosynthesis and respiration), O2 electrode; format: cell-based, Dunaliella salina (Chlorophyta)
Protocol: as §1, §2, §3

Anabaena PCC7120 [6] = test: Growth of cyanobacterium determined by chlorophyll concentration; format: cell-based
Protocol: Cyanobacteria were grown in BG11 medium under 30 μmol photons m^−2 sec^−1 at 30° C. in the presence of the indicated concentration of Ornidazole.
as §1
The effect of Ornidazole on the growth of the cyanobacterium Anabaena PCC7120 was examined by determining the chlorophyll concentration. The algae were grown in BG-11 medium as described herein above. […] One mM Ornidazole in the medium caused a decrease in chlorophyll concentration to 1% of its original concentration after three days of such incubation (FIG. 1).

[7] = tested on: Phaeodactylum tricornutum; test: Net O2 exchange (photosynthesis and respiration), O2 electrode; format: cell-based, Phaeodactylum tricornutum (Diatoms)
Protocol: as §1, §2, §3

[8] = Anabaena PCC7120, 1 mM Ornidazole added for 5 min
[9] = Dunaliella salina, 1 mM Ornidazole added for 5 min
[10] = Phaeodactylum tricornutum, 1 mM Ornidazole added for 5 min

## Cc1ncc([N+](=O)[O-])n1CC(O)CCl (stereo not shown) [Ornidazole, 1-chloro-3-(2-methyl-5-nitro-1H-imidazol-1-yl)propan-2-ol]
[1]
  Ornidazole concentration in medium: remained stable
[2]
  inhibition of enzyme activity: inhibits the activity
Anabaena PCC7120 [3]; [8]
  Photosynthesis: −3.7 μmol O2 mg^−1 chl h^−1
  Respiration: −26.5 μmol O2 mg^−1 chl h^−1
Anabaena PCC7120 [3]; Anabaena, 1 mM, read-out: inhibition of respiration rate
  inhibition at 1000 µM: 30 to 35%
Anabaena PCC7120 [3]; Anabaena, higher concentrations (than 1 mM) or longer incubation time
  effect on photosynthesis: abolished photosynthesis
Anabaena PCC7120 [3]; limiting irradiance
  effect on photosynthetic rate: inhibited the photosynthetic rate to a lesser extent
Anabaena PCC7120 [3]; saturating irradiance at any Ci concentration
  effect on photosynthetic rate: concentration-dependent decrease in the photosynthetic rate
[4]
  inhibition of enzyme activity: inhibits the activity
Avena sterilis; limiting light intensity
  decrease of quantum yield of photosynthesis: 50%
Avena sterilis; saturating light intensity
  decrease of quantum yield of photosynthesis: 85%
[5]
  effect on photosynthetic electron transport: no effect
Dunaliella salina; [9]
  Photosynthesis: 17.88 μmol O2 mg^−1 chl h^−1
  Respiration: −3.13 μmol O2 mg^−1 chl h^−1
Dunaliella salina; Dunaliella salina, Dunaliella, 1 mM, read-out: inhibition of respiration rate
  inhibition at 1000 µM: 30 to 35%
Dunaliella salina; Dunaliella, higher concentrations (than 1 mM) or longer incubation time
  effect on photosynthesis: abolished photosynthesis
Anabaena PCC7120 [6]; 250 μM Ornidazole in BG-11 medium
  effect on growth: stopped the growth and stimulated chlorosis
Anabaena PCC7120 [6]; 1 mM Ornidazole in the medium, after three days
  chlorophyll concentration relative to original concentration: 1%
[7]; [10]
  Photosynthesis: −4.33 μmol O2 mg^−1 chl h^−1
  Respiration: −67.14 μmol O2 mg^−1 chl h^−1
[7]; Phaeodactylum, 1 mM
  effect on respiration rate: stimulated the respiration rate
[7]; Phaeodactylum, higher concentrations (than 1 mM) or longer incubation time
  effect on photosynthesis: abolished photosynthesis
